In brackets after ≈: the same amount, converted by molar mass.
Legend:
Assay type in all cases: cell-based
S. pyogenes = test: Bactericidal activity
[1] = tested on: resistant S. aureus (MRSA, VISA, linezolid-resistant); test: Antibacterial activity against drug-resistant strains
Protocol: (§1) Compounds of the present invention were tested for antibacterial activity against a variety of pathogenic organisms including S. aureus, S. pneumoniae, S. pyogenes, E. faecalis, H. influenza and M. catarrhalis using a standard broth microdilution method to determine their minimum inhibitory concentrations (MICs). All compounds were tested using standard methods in accordance with CLSI guidelines (Clinical and Laboratory Standards Institute). Compounds described in Examples 1-5, 7-12, 14, 16-17, 19-30, 32-35, 37-42, 44-66, 69, 71-76, 79-84, and 87 had MIC's of 0.25-4.0 μg/mL against some strains of the major Gram-positive organisms S. aureus, S. pneumoniae, S. pyogenes, and E. faecalis.
(§2) Compounds of the present invention were not compromised by existing resistance to all drug classes tested, including β-lactams, glycopeptides, oxazolidinones, macrolides, and fluoroquinolones. In particular, the compound described in Example 9 was active against methicillin- (oxacillin-) resistant S. aureus (MRSA), vancomycin-intermediate S. aureus (VISA), linezolid-resistant S. aureus, methicillin- (oxacillin-) resistant and mupirocin resistant S. epidermidis, macrolide-resistant S. pyogenes, macrolide-, penicillin-, and levofloxacin-resistant S. pneumoniae, vancomycin-, macrolide-, and ciprofloxacin-resistant E. faecalis (VRE) and vancomycin-, macrolide-, and ciprofloxacin-resistant E. faecium.

[2] = tested on: vancomycin-, macrolide-, and ciprofloxacin-resistant E. faecium; test: as above
Protocol: as §1, §2

[3] = tested on: methicillin- (oxacillin-) resistant and mupirocin resistant S. epidermidis; test: as above
Protocol: as §1, §2

[4] = tested on: macrolide-, penicillin-, and levofloxacin-resistant S. pneumoniae; test: as above
Protocol: as §1, §2

[5] = tested on: macrolide-resistant S. pyogenes; test: as above
Protocol: as §1, §2

[6] = tested on: vancomycin-, macrolide-, and ciprofloxacin-resistant E. faecalis (VRE); test: as above
Protocol: as §1, §2

S. pneumoniae = test: Bactericidal activity
S. aureus = test: Bactericidal activity
E. faecium = test: Bactericidal activity
S. epidermidis = test: Bactericidal activity
E. faecalis = test: Bactericidal activity
[7] = tested on: clinically relevant resistant strains; test: MIC in clinically relevant drug-resistant strains (all species together)
Protocol: as §1, §2

`CCCS(=O)(=O)Cc1csc(NC(=O)NCc2ccc(Cl)c(Cl)c2)n1` [Example 9, 1-(3,4-dichlorobenzyl)-3-(4-(propylsulfonylmethyl)thiazol-2-yl)urea] was tested, and the bactericidal effect (S. pyogenes) was “bactericidal”, the “activity against resistant strain” value ([1]; linezolid-resistant S. aureus) was “active” and the “activity against resistant strain” value ([1]; methicillin- (oxacillin-) resistant S. aureus (MRSA)) was “active”. For the same molecule, the “activity against resistant strain” value ([1]; vancomycin-intermediate S. aureus (VISA)) was “active”, the “activity against resistant strain” value [2] was “active” and the “activity against resistant strain” value [3] was “active”. The “activity against resistant strain” value [4] was “active”, the “activity against resistant strain” value [5] was “active” and the “activity against resistant strain” value [6] was “active”. The bactericidal effect (S. pneumoniae) was “bactericidal”, the bactericidal effect (S. aureus) was “bactericidal” and the bactericidal effect (E. faecium) was “bactericidal”. For the same molecule, the bactericidal effect (S. epidermidis) was “bactericidal”, the bactericidal effect (E. faecalis) was “bactericidal” and the MIC ([7]; clinically relevant resistant strains) was 0.5 to 4 µg/mL (≈ 1.18 to 9.47 µM). The “MICs in sensitive versus drug resistant strains” value ([7]; sensitive versus drug resistant strains) was “comparable”.
